The structures appear in SMILES notation.

The first experiment deals with T1, Human PIP4K2C (Homo sapiens, UniProt Q8TBX8).
T1 construct: purchased Eurofins DiscoverX 87-0007-1094
T1 sequence (Q8TBX8 1-421): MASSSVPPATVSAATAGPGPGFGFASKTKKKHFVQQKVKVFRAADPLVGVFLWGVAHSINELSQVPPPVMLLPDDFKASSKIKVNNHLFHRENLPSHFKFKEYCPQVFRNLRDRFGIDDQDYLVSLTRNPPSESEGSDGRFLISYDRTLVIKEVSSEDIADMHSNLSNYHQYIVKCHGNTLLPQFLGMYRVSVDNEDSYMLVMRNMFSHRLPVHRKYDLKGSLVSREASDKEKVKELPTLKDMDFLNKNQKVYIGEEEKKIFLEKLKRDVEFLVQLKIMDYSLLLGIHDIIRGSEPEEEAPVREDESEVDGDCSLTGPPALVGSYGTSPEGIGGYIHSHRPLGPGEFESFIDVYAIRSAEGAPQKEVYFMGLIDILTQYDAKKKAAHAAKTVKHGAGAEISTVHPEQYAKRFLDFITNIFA
Briefly: Enzyme binding assay (KINOMEscan), active site-directed competition binding. The settings on record: 11-point dose response, duplicate, top concentration 5 micromolar; read-out: Pip4k2c Kd: IC50. In short, it runs like this: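 Active site-directed competition against immobilized ligand. 11-point dose response in duplicate, top concentration 5 micromolar; IC50 from Hill fit by Levenberg-Marquardt.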
As for `CC(=O)N1CCCC(c2nc(Nc3cncc(N4CCCC4=O)c3)ncc2Cl)C1` (centres unmarked) [Compound 151, 1-(5-((4-(1-acetylpiperidin-3-yl)-5-chloropyrimidin-2-yl)amino)pyridin-3-yl)pyrrolidine-2-one], the IC50 (as a rule, the midpoint of a concentration-inhibition curve) was less than 500 nM.

Take `CC(=O)N1CCC(c2nc(Nc3cncc(N4CCCC4=O)c3)ncc2Cl)CC1` [Compound 152, 1-(5-((4-(1-acetylpiperidin-4-yl)-5-chloropyrimidin-2-yl)amino)pyridin-3-yl)pyrrolidin-2-one]: the IC50 was less than 500 nM. Consider `O=C(C1CCCC1)N1CCC(c2nc(Nc3cncc(N4CCCC4=O)c3)ncc2Cl)CC1` [Compound 153, 1-(5-((5-chloro-4-(1-(cyclopentanecarbonyl)piperidin-4-yl)pyrimidin-2-yl)amino)pyridin-3-yl)pyrrolidin-2-one], for which the IC50 is less than 500 nM. In the case of `O=C1CCCN1c1cncc(Nc2ncc(F)c(C3CCCN(C4CC4)C3)n2)c1` (centres unmarked) [Compound 154, 1-(5-((4-(1-cyclopropylpiperidin-3-yl)-5-fluoropyrimidin-2-yl)amino)pyridin-3-yl)pyrrolidine-2-one], the IC50 was less than 500 nM. Regarding `O=C1CCCN1c1cncc(Nc2ncc(F)c(-c3ccc(=O)n(C4COC4)c3)n2)c1` [Compound 155, 5-(5-fluoro-2-((5-(2-oxopyrrolidin-1-yl)pyridin-3-yl)amino)pyrimidin-4-yl)-1-(oxetan-3-yl)pyridin-2(1H)-one], the IC50 is less than 500 nM. Take `O=C1CCCN1c1cncc(Nc2ncc(Cl)c(N3CCCC(n4ccccc4=O)C3)n2)c1` (centres unmarked) [Compound 156, 1-(1-(5-chloro-2-((5-(2-oxopyrrolidin-1-yl)pyridin-3-yl)amino)pyrimidin-4-yl)piperidin-3-yl)pyridin-2(1H)-one]: the IC50 was less than 500 nM. Turning to `O=C1CCCN1c1cncc(Nc2ncc(F)c(-c3ccc(=O)n(C4CCC4)c3)n2)c1` [Compound 157, 1-cyclobutyl-5-(5-fluoro-2-((5-(2-oxopyrrolidin-1-yl)pyridin-3-yl)amino)pyrimidin-4-yl)pyridin-2(1H)-one], the IC50 was less than 500 nM. For the compound `O=C1CCCN1c1cncc(Nc2ncc(F)c(-c3ccc(=O)n(CC4CC4)c3)n2)c1` [Compound 158, 1-(cyclopropylmethyl)-5-(5-fluoro-2-((5-(2-oxopyrrolidin-1-yl)pyridin-3-yl)amino)pyrimidin-4-yl)pyridin-2(1H)-one], the IC50 was less than 500 nM.

`O=C(c1ccc(F)cc1)N1CCC(c2nc(Nc3cncc(N4CCCC4=O)c3)ncc2Cl)C1` (centres unmarked) [Compound 159, 1-(5-((5-chloro-4-(1-(4-fluorobenzoyl)pyrrolidin-3-yl)pyrimidin-2-yl)amino)pyridin-3-yl)pyrrolidin-2-one]: the IC50 was less than 500 nM. Take `O=C(C1COC1)N1CCCC(c2nc(Nc3cncc(N4CCCC4=O)c3)ncc2Cl)C1` (centres unmarked) [Compound 160, 1-(5-((5-chloro-4-(1-(oxetane-3-carbonyl)piperidin-3-yl)pyrimidin-2-yl)amino)pyridin-3-yl)pyrrolidin-2-one]: the IC50 is less than 500 nM. For `O=C(c1cccc(=O)[nH]1)N1CCCC(c2nc(Nc3cncc(N4CCCC4=O)c3)ncc2Cl)C1` (centres unmarked) [Compound 161, 6-(3-(5-chloro-2-((5-(2-oxopyrrolidin-1-yl)pyridin-3-yl)amino)pyrimidin-4-yl)piperidine-1-carbonyl)pyridin-2(1H)-one], the IC50 was less than 500 nM. Still for that read-out and setting: the result for `O=C(c1ccc(F)cc1)N1CCCC(c2nc(Nc3cncc(N4CCCC4=O)c3)ncc2Cl)C1` (centres unmarked) [Compound 162, 1-(5-((5-chloro-4-(1-(4-fluorobenzoyl)piperidin-3-yl)pyrimidin-2-yl)amino)pyridin-3-yl)pyrrolidin-2-one] reads less than 500 nM; that for `O=C(c1ccc(=O)[nH]c1)N1CCCC(c2nc(Nc3cncc(N4CCCC4=O)c3)ncc2Cl)C1` (centres unmarked) [Compound 163, 5-[3-[5-chloro-2-[[5-(2-oxopyrrolidin-1-yl)-3-pyridyl]amino]pyrimidin-4-yl]piperidine-1-carbonyl]-1H-pyridin-2-one], less than 500 nM. The same measure, in the same setting: the result for `O=C(c1cc[nH]c(=O)c1)N1CCCC(c2nc(Nc3cncc(N4CCCC4=O)c3)ncc2Cl)C1` (centres unmarked) [Compound 164, 4-(3-(5-chloro-2-((5-(2-oxopyrrolidin-1-yl)pyridin-3-yl)amino)pyrimidin-4-yl)piperidine-1-carbonyl)pyridin-2(1H)-one] reads less than 500 nM; that for `O=C(c1ccc[nH]c1=O)N1CCCC(c2nc(Nc3cncc(N4CCCC4=O)c3)ncc2Cl)C1` (centres unmarked) [Compound 165, 3-(3-(5-chloro-2-((5-(2-oxopyrrolidin-1-yl)pyridin-3-yl)amino)pyrimidin-4-yl)piperidine-1-carbonyl)pyridin-2(1H)-one], less than 500 nM.

For the next experiment, the target named is T2, endogenous PIP4K2C C-terminally tagged with HiBiT peptide in MOLT-4 cells (Homo sapiens, UniProt Q8TBX8).
T2 construct: to C-terminally tag endogenous PIP4K2C with HiBiT peptide; host or cells: MOLT-4 (CRISPR-Cas9 knock-in clone)
T2 sequence (Q8TBX8 1-421): T1 sequence (Q8TBX8 1-421)
Briefly: HiBiT PIP4K2C degradation assay in MOLT-4 cells. Format: cell-based. The settings on record: 24 hours, 10-point dose response, top concentration 10 micromolar, read-out: HiBIT-degradation MOLT4 PIP4k2C 24 hours DC50. Here is the method:
Following clonal selection, genotype was confirmed by Sanger sequencing. […] Nano-Glo® HiBiT Lytic Assay System was purchased from Promega (Madison, WI, Catalog number N3030). Cell culture flasks and 384-well microplates were purchased from Corning (Glendale, AZ).
To study PIP4K2C degradation, 384-well plates were plated with a 10-point dose response curve, 3-fold dilution, in duplicate with a top starting concentration of 10 micromolar. Subsequently 22,500 cells were added to each well and incubated at 37C in 5% CO2 for 24 hours. At the end of the incubation time, cells were treated with the Nano-Glo® HiBiT Lytic Detection System following the manufacturer's instructions. Luminescence was measured with a PHERAstar FSX plate reader (BMG Labtech, Cary, NC). The Levenberg-Marquardt algorithm was used to fit a Hill equation to dose-response data to calculate DC50 values (see Table 6).
As for `Cn1c(=O)n(C2CCC(=O)NC2=O)c2cc(OCC(=O)NCCCCCCCCCC(=O)Nc3cncc(Nc4ncc(Cl)c(-c5cccc(-c6ccccc6)c5)n4)c3)ccc21` (centres unmarked) [Compound 51, N-(5-((4-([1,1′-biphenyl]-3-yl)-5-chloropyrimidin-2-yl)amino)pyridin-3-yl)-10-(2-((3-(2,6-dioxopiperidin-3-yl)-1-methyl-2-oxo-2,3-dihydro-1H-benzo[d]imidazol-5-yl)oxy)acetamido)decanamide], the DC50 (usually the concentration giving 50% degradation) lay in the range of 1000 to 5000 nM.

As for `O=C1CCC(N2Cc3cc(OCCCCCCCCCCN4CCC5(CC4)CCN(c4cncc(Nc6ncc(Cl)c(-c7cccc(-c8ccccc8)c7)n6)c4)C5=O)ccc3C2=O)C(=O)N1` (centres unmarked) [Compound 52, 3-(5-((10-(2-(5-((4-([1,1′-biphenyl]-3-yl)-5-chloropyrimidin-2-yl)amino)pyridin-3-yl)-1-oxo-2,8-diazaspiro[4.5]decan-8-yl)decyl)oxy)-1-oxoisoindolin-2-yl)piperidine-2,6-dione], the DC50 was in the range of 500 to 1000 nM. For `O=C1CCC(N2Cc3cc(OCCCCCCCCCN4CCC5(CC4)CCN(c4cncc(Nc6ncc(Cl)c(-c7cccc(-c8ccccc8)c7)n6)c4)C5=O)ccc3C2=O)C(=O)N1` (centres unmarked) [Compound 53, 3-(5-((9-(2-(5-((4-([1,1′-biphenyl]-3-yl)-5-chloropyrimidin-2-yl)amino)pyridin-3-yl)-1-oxo-2,8-diazaspiro[4.5]decan-8-yl)nonyl)oxy)-1-oxoisoindolin-2-yl)piperidine-2,6-dione], the half-maximal degradation concentration (DC50) is less than 500 nM.

With `O=C1CCC(N2Cc3cc(OCCCCCCCN4CCC5(CC4)CCN(c4cncc(Nc6ncc(Cl)c(-c7cccc(-c8ccccc8)c7)n6)c4)C5=O)ccc3C2=O)C(=O)N1` (centres unmarked) [Compound 54, 3-(5-((7-(2-(5-((4-([1,1′-biphenyl]-3-yl)-5-chloropyrimidin-2-yl)amino)pyridin-3-yl)-1-oxo-2,8-diazaspiro[4.5]decan-8-yl)heptyl)oxy)-1-oxoisoindolin-2-yl)piperidine-2,6-dione], the DC50 was less than 500 nM. The same measure, in the same setting: the result for `O=C(COc1ccc(NC2CCC(=O)NC2=O)cc1)NCCCCCCCCCC(=O)Nc1cncc(Nc2ncc(Cl)c(-c3cccc(-c4ccccc4)c3)n2)c1` (centres unmarked) [Compound 55, N-(5-((4-([1,1′-biphenyl]-3-yl)-5-chloropyrimidin-2-yl)amino)pyridin-3-yl)-10-(2-(4-((2,6-dioxopiperidin-3-yl)amino)phenoxy)acetamido)decanamide] reads 500 to 1000 nM. For `O=C1CCC(N2Cc3cc(OCCCCCCCCN4CCC5(CC4)CCN(c4cncc(Nc6ncc(Cl)c(-c7cccc(-c8ccccc8)c7)n6)c4)C5=O)ccc3C2=O)C(=O)N1` (centres unmarked) [Compound 56, 3-(5-((8-(2-(5-((4-([1,1′-biphenyl]-3-yl)-5-chloropyrimidin-2-yl)amino)pyridin-3-yl)-1-oxo-2,8-diazaspiro[4.5]decan-8-yl)octyl)oxy)-1-oxoisoindolin-2-yl)piperidine-2,6-dione], the DC50 is less than 500 nM. Still for that read-out and setting: the result for `O=C1CCC(N2C(=O)c3cccc(OCCCN4CCN(CCCCCCC(=O)Nc5cncc(Nc6ncc(Cl)c(-c7cccc(-c8ccccc8)c7)n6)c5)CC4)c3C2=O)C(=O)N1` (centres unmarked) [Compound 58, N-(5-((4-([1,1′-biphenyl]-3-yl)-5-chloropyrimidin-2-yl)amino)pyridin-3-yl)-7-(4-(3-((2-(2,6-dioxopiperidin-3-yl)-1,3-dioxoisoindolin-4-yl)oxy)propyl)piperazin-1-yl)heptanamide] reads less than 500 nM. `O=C(COc1ccc2c(c1)C(=O)N(C1CCC(=O)NC1=O)C2=O)NCCCCCCCCCC(=O)Nc1cncc(Nc2ncc(Cl)c(-c3cccc(-c4ccccc4)c3)n2)c1` (centres unmarked) [Compound 59, N-(5-((4-([1,1′-biphenyl]-3-yl)-5-chloropyrimidin-2-yl)amino)pyridin-3-yl)-10-(2-((2-(2,6-dioxopiperidin-3-yl)-1,3-dioxoisoindolin-5-yl)oxy)acetamido)decanamide]: the DC50 is 500 to 1000 nM.

Values taken from patent US20260184691A1, “INHIBITORS AND DEGRADERS OF PIP4K PROTEIN” (Larkspur Biosciences, Inc., priority 2022, published 2026).
